Data as given in patent US6677307B2, “TGF-α polypeptides, functional fragments and methods of use therefor” (Kaleidos Pharma, Inc., priority 1999, dated 2004).

Experiments:
kidney [1] = test: gentamicin chronic kidney toxicity, blood BUN and creatinine; type: in vivo, CD-1 mice; conditions: gentamicin sulfate 80 mg/kg sc every 24 hours; 1 μg ip every 24 hours; two weeks
Experimental: In another set of in vivo experiments, gentamicin (antibiotic having dose-limiting kidney toxicity side effects) was used as the cytotoxic agent for a chronic cytotoxic agent. Eight CD-1 mice were weighed and injected subcutaneously with 80 mg/kg of gentamicin sulfate. Four of the mice were controls and injected with 0.1 ml of 0.9% saline and the other four injected ip with 0.1 ml of 10 μg/ml stock of TGF-α (57 aa polypeptide) as a 1 μg dose. The mice were reinjected with the same does of saline or TGF-α every 24 hours and every 24 hours subcutaneously with the same does of gentamicin. After two weeks of treatment, the mice were sacrificed and blood BUN and creatinine were measured and the kidneys examined. The average creatinine values were 0.49±0.096 for controls and 0.34±0.042 for treated mice. The average BUN values were 36.1±4.8 for controls and 35.5±4.9 for treated mice.

kidney [2] = test: glycerol acute kidney toxicity, blood BUN and creatinine; type: in vivo, CD-1 mice; conditions: 50% glycerol 10 ml/kg im; 1 μg ip; two treatments
Experimental: In another set of in vivo experiments, glycerol (50% (v/v) aqueous solution, Sigma) was used as the cytotoxic agent for an acute cytotoxic agent. Six CD-1 mice were weighed and injected into both hind limbs im with 10 ml/kg of 50% (v/v) glycerol, one half into each hind limb im. Three of the mice were controls and injected with 0.1 ml of 0.9% saline and the other three injected ip with 0.1 ml of 10 μg/ml stock of TGF-α (57 aa polypeptide) as a 1 μg dose. The mice were reinjected with the same does of saline or TGFα the next day and another equal dose of 50% glycerol. After two treatments, the mice were sacrificed and blood BUN and creatinine was measured and the kidneys examined. The average creatinine values were 1.75±0.613 for controls and 1.51±0.940 for treated mice. The average BUN values were […] for controls and 165.3±75.6 for treated mice.

mouse spleen = test: in vivo model of general hematopoiesis with Cis Platinum (spleen weights, platelets, spleen histology)
Experimental: Hematopoietic and myeloid cells are red blood cell precursors, platelet precursors (megakaryocytes), and immune (white) blood cell precursors of various forms of T cells, B cells and macrophages. […] It should be noted that references to TGF-α as a human 50 amino acid polypeptide further include reference to human TGFα57 as an alternative variant.
(§1) The experiment procedure dosed those animals to be treated with TGFα 57 4 hours prior to challenge with CP. A single dose of CP was administered. Additional doses (as indicated) of TGFα 57 were made at 24 hours, 48 hours, 72 hours and 96 hours after the CP dose. All doses were made by IP injection. Controls were dosed with saline instead of either or both of CP and TGF-α57.
(§2) The animals were sacrificed about 4 hours after the last TGF-α57 (or saline) dose. Key organs were removed and spleens were immediately weighed after a clean incision. All the relevant organs were placed in formalin, transported for histopathological analysis, mounted, sectioned, stained and observed. The results of this histological analysis of the spleens for hematopoietic effect and the GI tract (below) provided surprising and unexpected data of the effect of TGF-α57 activity.
There was erythrocytes in the perifollicular zone surrounding both the T cell and B cell compartments of white pulp. […] The T cells stained for the T-cell receptor but were negative for CD4 and CD8 markers. Accordingly, the T-cells are double null T-cell progenitors induced by TGF-α administration.

[3] = system: human CD34 positive and CD38 negative cells; test: liquid primary culture of human bone-marrow enriched CD34 cells; type: cell-based
Experimental: An additional experiment investigated TGF-α activity (using TGF-α57) on human bone-marrow enriched CD34 cells. FACS-sorted human CD34 positive and CD38 negative cells were cultured in liquid primary cultures in Iscove's modified Dulbecco's media with supplements. […] Stem Cell Factor (SCF) was used as a positive control (500 ng/ml) and provided a three-fold increase in CD34 positive cells. When a combination of SCF (500 ng/ml) and TGFα (10 ng/ml) was added, a synergistic 12-fold increase in CD34 positive cells was observed.

mouse intestines = test: histological examination of intestines of CP-treated mice; type: in vivo
Experimental: as §1, §2
TGFα or a peptide from formula I, formula II, formula III, formula IV, formula V, or formula VI having TGFα activity or combinations thereof are also useful for treating mucositis associated intestinal bleeding, dyspepsia caused by with cytotoxic therapy and for improving the barrier function of the GI tract compromised by cytotoxic therapy. The in vivo experiment with seven groups of mice described above for hematopoietic effects noted in spleens also examined the GI tract of these treated mice. […] A single row of intestinal crypt is found at the base of the mucosa. These crypts that lie between adjacent villi are surrounded by the same lamina propria that form the villous cores. Both columnar absorptive cells and goblet cells cover the villous surfaces. The goblet cells contain apical clear vacuoles. […] Specifically, the villus was long and slender. Both absorptive cells and goblet cells were visible at the surface of the villi, and there was an abundant amount of goblet cells on the surface.
A 160×magnification of the intestines of a CP-treated mouse, a normal mouse and a CP treated and TGFα57 treated mouse at the same doses as described above. […] The crypts were irregularly shaped and in had various heights. […] The crypts also appeared normal.
Red cells were visible at the damaged surface indicating intestinal bleeding. […] Globlet cells appeared interspersed, necrotic and fewer in number than normal. […] Specifically, the epithelial cells appeared normal with extended brush borders. The nuclei were very densely stained and elongated.
The histological data is summarized in FIG. 4 that measured average crypt height of the three groups of mice.
An alcian blue staining method permitted differentiation of absorptive cells and goblet cells. Goblet cell mucus is stained a blue color while the absorptive cells remain less stained. […] In the normal intestine each villus extended from the luminal surface to the basal muscularis mucosal surface. Goblet cells were scattered and predominated in the base of the villus whereas columnar absorptive cells lined the luminal surface. […] The injured absorptive and goblet cells were degenerating at the tip of the villi and abundant secretory mucus material was stained in the luminal surface. In the CP/TGF-α mouse, there were an increased number of goblet cells scattered throughout the villi. The intestinal villi appeared normal with elongation. […] The luminal plasma membranes of the villi were well protected by TGF-α treatment. The number of goblet cells was counted on the average unit length of intestine.

Question: What does the source list for “TGF-α57: 57 amino acid polypeptide of formula VI: Ser-Leu-Ser-Leu-Pro-Ala-Met-Human TGFα”?
Answer: average BUN (kidney [1]): 35.5±4.9; average creatinine (kidney [1]): 0.34±0.042; average BUN (kidney [2]): 165.3±75.6; average creatinine (kidney [2]): 1.51±0.940; spleen weights (mouse spleen; CP 5 mg/kg or 10 mg/kg, 10 μg/kg or 50 μg/kg IP, FIG. 3): return to normal spleen weights; spleen histology (H&E) (mouse spleen; CP 10 mg/kg and 50 μg/kg): increased number of T cells and erythrocytes in the perifollicular zone; platelet counts (mouse spleen; with CP, as opposed to CP alone): higher; increase in CD34 positive progenitor cells ([3]; added alone, 10 ng/ml): 35%; proliferation of dendritic precursor cells ([3]; treated cultures): stimulation of the proliferation of dendritic precursor cells; intestinal structure (cross section histology) (mouse intestines; CP 10 mg/kg and 50 μg/kg): intestinal structure was very similar to the normal intestinal structure; number of goblet cells on the average unit length of intestine (alcian blue) (mouse intestines; CP 10 mg/kg and 50 μg/kg): increased the number from CP treatment to a higher level than normal intestine; villa surface, higher magnification (mouse intestines; CP 10 mg/kg and 50 μg/kg): protection of the villa surface; villi and crypts, 160× magnification (mouse intestines; CP 10 mg/kg and 50 μg/kg): normal appearing villi; average crypt height (mouse intestines; CP treatment, 50 μg/kg, FIG. 4): more-than-restore crypt height loss
